According to PMC10112881 (Cell reports, 2023):

Legend:
5-HT5A = 5-HT5A (Homo sapiens, UniProt P47898); experiment: G protein dissociation BRET assay; format: cell-based; conditions: read-out: KB (antagonist), 37°C, 60 minutes
rat cortical neurons = experiment: Dendritogenesis; format: cell-based
D3 = D3 (Homo sapiens, UniProt P35462); experiment: G protein dissociation BRET assay; format: cell-based; conditions: relative to dopamine
5-HT2A = 5-HT2A (Homo sapiens, UniProt P28223); format: cell-based; conditions: β-arrestin recruitment, normalized to 5-HT
[1] = test system: primary rat cortical neurons; experiment: Cell viability of primary cortical neurons; format: cell-based; conditions: every tested concentration
D4 = D4 (Homo sapiens, UniProt P21917); experiment: G protein dissociation BRET assay; format: cell-based
α2A = α2A (Homo sapiens, UniProt P08913); experiment: G protein dissociation BRET assay; format: cell-based; conditions: read-out: KB (antagonist)
[2] = test system: 44 known off-targets and other transporters; experiment: Eurofins panel of 44 known off-targets and other transporters
D1/5 subtypes = experiment: G protein dissociation BRET assay; format: cell-based, human
D2 = D2 (Homo sapiens, UniProt P14416); experiment: G protein dissociation BRET assay; format: cell-based
5-HT1A = 5-HT1A (Homo sapiens, UniProt P08908); experiment: β-arrestin2 recruitment BRET assay; format: cell-based
5-HT1A, sequence (P08908 whole entry): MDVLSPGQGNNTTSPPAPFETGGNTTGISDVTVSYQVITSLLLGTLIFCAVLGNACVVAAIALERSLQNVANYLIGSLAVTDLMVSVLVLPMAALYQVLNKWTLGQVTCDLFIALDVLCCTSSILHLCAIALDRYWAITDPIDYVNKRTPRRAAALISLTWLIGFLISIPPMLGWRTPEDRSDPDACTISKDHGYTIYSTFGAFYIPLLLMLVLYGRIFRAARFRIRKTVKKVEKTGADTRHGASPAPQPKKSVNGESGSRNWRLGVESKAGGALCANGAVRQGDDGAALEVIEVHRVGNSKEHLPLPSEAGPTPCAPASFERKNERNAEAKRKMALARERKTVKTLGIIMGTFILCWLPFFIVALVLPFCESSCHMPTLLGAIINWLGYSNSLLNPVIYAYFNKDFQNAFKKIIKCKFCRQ

5-HT2A, sequence (P28223 whole entry): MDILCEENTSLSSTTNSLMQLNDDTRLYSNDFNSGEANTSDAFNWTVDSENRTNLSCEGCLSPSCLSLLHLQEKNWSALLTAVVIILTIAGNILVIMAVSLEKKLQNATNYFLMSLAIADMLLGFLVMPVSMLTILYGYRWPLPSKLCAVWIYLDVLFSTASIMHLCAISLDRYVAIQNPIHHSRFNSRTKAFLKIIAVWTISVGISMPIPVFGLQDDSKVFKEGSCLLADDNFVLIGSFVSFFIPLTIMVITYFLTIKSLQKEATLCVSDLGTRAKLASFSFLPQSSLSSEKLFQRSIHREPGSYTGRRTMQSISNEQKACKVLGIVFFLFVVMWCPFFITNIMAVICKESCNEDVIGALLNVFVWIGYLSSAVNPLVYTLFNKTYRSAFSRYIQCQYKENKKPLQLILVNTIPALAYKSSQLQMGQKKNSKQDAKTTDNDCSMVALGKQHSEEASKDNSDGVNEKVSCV
D4, sequence (P21917 whole entry): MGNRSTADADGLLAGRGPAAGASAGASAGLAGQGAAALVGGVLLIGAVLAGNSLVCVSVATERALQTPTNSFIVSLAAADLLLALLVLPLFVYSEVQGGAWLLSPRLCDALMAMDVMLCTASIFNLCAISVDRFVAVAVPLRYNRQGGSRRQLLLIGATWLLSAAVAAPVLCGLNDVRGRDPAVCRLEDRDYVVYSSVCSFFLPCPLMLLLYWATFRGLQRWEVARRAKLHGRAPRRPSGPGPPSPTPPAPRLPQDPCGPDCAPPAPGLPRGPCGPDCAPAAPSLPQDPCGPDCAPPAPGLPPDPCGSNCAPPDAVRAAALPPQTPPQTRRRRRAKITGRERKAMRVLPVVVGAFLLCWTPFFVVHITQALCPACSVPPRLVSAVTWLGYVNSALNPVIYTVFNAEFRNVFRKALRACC
D2, sequence (P14416 whole entry): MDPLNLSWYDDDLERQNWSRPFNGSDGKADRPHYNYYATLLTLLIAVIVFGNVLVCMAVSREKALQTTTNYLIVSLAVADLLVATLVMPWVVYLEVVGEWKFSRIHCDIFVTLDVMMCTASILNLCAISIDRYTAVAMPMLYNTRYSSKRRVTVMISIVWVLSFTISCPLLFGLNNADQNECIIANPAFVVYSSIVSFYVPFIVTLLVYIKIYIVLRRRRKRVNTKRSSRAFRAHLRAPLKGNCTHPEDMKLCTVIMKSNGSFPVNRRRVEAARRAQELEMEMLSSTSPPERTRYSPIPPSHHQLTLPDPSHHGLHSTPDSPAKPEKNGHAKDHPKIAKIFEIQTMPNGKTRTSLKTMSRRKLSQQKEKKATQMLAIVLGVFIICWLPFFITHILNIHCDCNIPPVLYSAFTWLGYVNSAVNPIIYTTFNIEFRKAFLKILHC
α2A, sequence (P08913 whole entry): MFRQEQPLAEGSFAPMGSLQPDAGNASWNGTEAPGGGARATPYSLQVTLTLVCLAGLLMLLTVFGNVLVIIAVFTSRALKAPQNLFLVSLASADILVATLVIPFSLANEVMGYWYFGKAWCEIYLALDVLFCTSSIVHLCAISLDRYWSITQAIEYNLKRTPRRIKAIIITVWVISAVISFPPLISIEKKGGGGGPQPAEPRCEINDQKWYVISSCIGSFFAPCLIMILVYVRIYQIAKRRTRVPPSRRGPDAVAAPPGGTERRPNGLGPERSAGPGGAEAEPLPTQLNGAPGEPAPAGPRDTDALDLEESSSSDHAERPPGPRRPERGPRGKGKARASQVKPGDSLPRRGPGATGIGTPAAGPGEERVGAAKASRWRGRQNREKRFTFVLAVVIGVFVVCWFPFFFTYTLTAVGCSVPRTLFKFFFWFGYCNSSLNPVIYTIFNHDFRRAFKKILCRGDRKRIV
5-HT5A, sequence (P47898 whole entry): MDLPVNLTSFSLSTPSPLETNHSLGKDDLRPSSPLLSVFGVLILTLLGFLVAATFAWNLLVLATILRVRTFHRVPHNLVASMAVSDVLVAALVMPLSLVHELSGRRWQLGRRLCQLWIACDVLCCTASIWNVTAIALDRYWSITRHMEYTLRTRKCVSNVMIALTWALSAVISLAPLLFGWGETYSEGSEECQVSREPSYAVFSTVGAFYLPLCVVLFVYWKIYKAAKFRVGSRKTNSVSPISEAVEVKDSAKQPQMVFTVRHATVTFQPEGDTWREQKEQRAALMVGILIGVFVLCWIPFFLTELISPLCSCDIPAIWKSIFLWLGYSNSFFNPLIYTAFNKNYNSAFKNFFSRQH
D3, sequence (P35462 whole entry): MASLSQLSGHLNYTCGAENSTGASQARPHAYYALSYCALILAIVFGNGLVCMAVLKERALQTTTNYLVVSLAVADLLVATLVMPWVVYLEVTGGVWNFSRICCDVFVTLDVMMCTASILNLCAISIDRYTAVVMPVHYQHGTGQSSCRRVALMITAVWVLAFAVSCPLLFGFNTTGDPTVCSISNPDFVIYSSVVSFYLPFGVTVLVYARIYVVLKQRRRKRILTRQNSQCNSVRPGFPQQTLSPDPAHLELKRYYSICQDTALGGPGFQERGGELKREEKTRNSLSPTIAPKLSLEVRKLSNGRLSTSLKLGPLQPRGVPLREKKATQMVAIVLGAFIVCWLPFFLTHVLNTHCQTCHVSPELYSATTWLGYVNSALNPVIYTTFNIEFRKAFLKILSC

Q: CCN(CC)C(=O)[C@@H]1C=C2c3cccc4[nH]c(Br)c(c34)C[C@H]2N(C)C1.CCN(CC)C(=O)[C@@H]1C=C2c3cccc4[nH]c(Br)c(c34)C[C@H]2N(C)C1.O=C(O)C(O)C(O)C(=O)O [2-Br-LSD, (6aR,9R)-2-bromolysergic acid diethylamide (2:1) (+)-tartrate] was tested. Which Kb (5-HT5A) did it give?
A: 4.14 nM

Q: And the “total length of the dendritic arbor” value (rat cortical neurons; 1 and 10 μM, 3 h at DIV3)?
A: increased the total length of the dendritic arbor

Q: And the “number of dendrites crossing the Sholl radii” value (rat cortical neurons; 3 h treatment DIV3, read DIV6, maximal at 1 and 10 μM)?
A: dose-dependent increase

Q: What about the EMAX (D3) of the same compound?
A: 32%

Q: And the EMAX (5-HT2A)?
A: 36.9%

Q: What about the neuronal viability [1] of the same compound?
A: not different from control neurons

Q: And the EC50 (D4)?
A: 1.2 nM

Q: What about the Kb (α2A) of the same compound?
A: 12 nM

Q: What about the “preference for serotonin and dopamine GPCRs over off-targets” value [2] of the same compound?
A: > 100 fold

Q: What about the “agonism at D1/5 subtypes” value (D1/5 subtypes) of the same compound?
A: lacks strong agonism

Q: What about the EC50 (D2) of the same compound?
A: 0.35 nM

Q: What about the β-arrestin2 recruitment agonism (5-HT1A) of the same compound?
A: no detectable β-arrestin2 recruitment agonism
